According to US7192614B2, “Compositions and methods of treatment to alleviate or prevent migrainous headaches and their associated symptoms” (GelStat Corporation, priority 2002, dated 2007):

Columns and labels:
migraine = details: cited from earlier work
migraine headache = assay: Individual case reports, acute sublingual treatment of migraine headache (Examples 1-8, 10); assay type: in vivo, human; details: single subject
Protocol: A person in otherwise good health had suffered for years with consistently recurring migraine headaches, frequency approximately 1–3 times per month, average duration 4–12 hours, which headaches had proven refractory to standard pharmacological treatment. These migraine headaches were often accompanied by nausea, and infrequently by vomiting. Each occurrence of migraine headache rendered the individual unable to participate in the normal activities of daily living, both socially and professionally. Absenteeism from work and missed social engagements resulted from their frequent need to ensconce themself in a darkened, quiet room where they would ‘wait out’ the headache. The frequency and unpredictability of the migraine headaches caused substantial impairment even between events, this impairment associated with anxiety and the inability to plan any event with confidence. This individual used the present invention in a two (2) part sublingual administration regimen, wherein a first composition is administered sublingually, and allowed to reside under the tongue for a period of about sixty (60) seconds. A second identical composition is administered, following the start of administration of the first composition by approximately five (5) minutes. […]

[1] = 5 mg, placebo-controlled 2-attack study
[2] = doses > or = 2.5 mg, Rapoport 1997

CNS(=O)(=O)Cc1ccc2[nH]cc(CCN(C)C)c2c1 [Sumatriptan]
1 Hour headache response (migraine; Table 2, literature values): 20%
2 Hour complete headache response (migraine; Table 2, literature values): 36%
2 Hour headache response (migraine; Table 2, literature values): 59%
2 hour pain free (migraine; Table 2, literature values): 29%
subject-reported side effects (migraine headache): “weakness” and “exhaustion”
subject-reported relief of migraine headache and associated symptoms (migraine headache; two part sublingual regimen): moderate success

CN(C)CCc1c[nH]c2ccc(C[C@H]3COC(=O)N3)cc12 [Zolmitriptan]
pain free at 2 hours postdose (migraine; 5 mg): 31.1 % of attacks
pain-free response at 1 hour postdose (migraine; 5 mg): 10.6 % of attacks
sustained pain-free response at 24 hours (migraine; 5 mg): ^9Among attacks treated with ZOMIG-ZMT 5 mg, a sustained pain-free response at 24 hours was achieved in 22.2% of attacks compared to 8.2% for placebo (P < .0001)^1 also unpublished data, see same web address as for #5
headache response at 30 minutes (migraine; [1]): 16.5 % of attacks
headache response at 2 hours (migraine; [1]): 59 % of attacks
1 Hour headache response (migraine; Table 2, literature values): 44%^1
2 Hour complete headache response (migraine; Table 2, literature values): 40–45%^6,7
2 Hour headache response (migraine; Table 2, literature values): 66%^2,3,4
2 hour pain free (migraine; Table 2, literature values): 27–33%^8
2 hour sustained pain free (migraine; Table 2, literature values): 31%^9
headache response rate at 1 hour (migraine; [2]): 44 to 51%
headache response rate at 2 hours (migraine; [2]): 65 to 67%
